Paper PMC9147192, “Small Molecule Arranged Thermal Proximity Coaggregation (smarTPCA)—A Novel Approach to Characterize Protein–Protein Interactions in Living Cells by Similar Isothermal Dose–Responses” (International Journal of Molecular Sciences, 2022)

Legend:
Test in all cases: TPP-CCR in living HL-60 cells
Format in all cases: cell-based
VAPA = target: T1, VAPA (Homo sapiens, UniProt Q9P0L0)
T1 construct: dose–responses (mean over replicates), derived from TPP-CCR experiments in living cells; endogenous in cells; host or cells: HL-60 cells (ATCC No. CCL-240)
T1 sequence (Q9P0L0 1-249): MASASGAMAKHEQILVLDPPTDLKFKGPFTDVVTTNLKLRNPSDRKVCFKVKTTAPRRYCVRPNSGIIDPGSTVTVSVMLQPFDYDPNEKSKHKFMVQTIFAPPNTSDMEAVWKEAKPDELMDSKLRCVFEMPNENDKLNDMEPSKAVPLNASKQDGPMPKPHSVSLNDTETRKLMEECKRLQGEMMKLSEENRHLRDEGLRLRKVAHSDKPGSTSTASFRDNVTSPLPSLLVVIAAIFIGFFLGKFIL

CHMP4B = target: T2, CHMP4B (Homo sapiens, UniProt Q9H444)
T2 construct: endogenous in cells; host or cells: HL-60 (ATCC CCL-240)
T2 sequence (Q9H444 1-224): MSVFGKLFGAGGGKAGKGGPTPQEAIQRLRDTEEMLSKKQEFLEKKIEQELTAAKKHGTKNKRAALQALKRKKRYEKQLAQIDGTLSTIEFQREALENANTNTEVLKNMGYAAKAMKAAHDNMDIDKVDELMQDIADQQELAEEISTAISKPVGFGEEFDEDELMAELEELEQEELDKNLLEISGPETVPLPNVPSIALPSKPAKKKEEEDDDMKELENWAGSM

UNC119B = target: T3, UNC119B (Homo sapiens, UniProt A6NIH7)
T3 construct: endogenous in cells; host or cells: HL-60 (ATCC CCL-240)
T3 sequence (A6NIH7 whole entry): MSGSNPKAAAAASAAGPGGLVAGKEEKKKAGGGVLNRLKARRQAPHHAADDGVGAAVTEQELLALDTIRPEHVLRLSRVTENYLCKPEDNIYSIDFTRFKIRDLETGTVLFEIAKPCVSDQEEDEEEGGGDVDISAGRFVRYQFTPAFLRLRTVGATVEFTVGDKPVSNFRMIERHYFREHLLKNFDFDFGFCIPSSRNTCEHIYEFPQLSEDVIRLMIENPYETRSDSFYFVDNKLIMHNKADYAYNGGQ

LRRC59 = target: T4, LRRC59 (Homo sapiens, UniProt Q96AG4)
T4 construct: endogenous in cells; host or cells: HL-60 (ATCC CCL-240)
T4 sequence (Q96AG4 1-307): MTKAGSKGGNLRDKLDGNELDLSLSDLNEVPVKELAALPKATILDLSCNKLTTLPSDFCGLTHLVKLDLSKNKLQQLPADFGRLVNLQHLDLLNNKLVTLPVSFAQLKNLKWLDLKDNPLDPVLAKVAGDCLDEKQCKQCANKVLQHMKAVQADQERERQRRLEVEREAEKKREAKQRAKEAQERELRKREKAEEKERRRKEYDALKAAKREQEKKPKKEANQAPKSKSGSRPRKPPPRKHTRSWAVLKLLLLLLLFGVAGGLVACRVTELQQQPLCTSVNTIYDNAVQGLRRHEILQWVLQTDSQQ

[1] = living HL-60 cells, […] °C, TMT-MS

`Cc1cnc(Nc2ccc(F)cc2Cl)nc1-c1c[nH]c(C(=O)N[C@H](CO)c2cccc(Cl)c2)c1` [ERK 11e] was tested. Which Hill slope (VAPA; TPP-CCR, living cells, VAPA) did it give?
Its Hill slope is 0.66.

What about the EC50 (VAPA; [1]) of the same compound?
The EC50 was 1550 nM.

And the “Hill slope (VAPA)” value (VAPA; [1])?
Its value is 0.66.

What about the Hill slope (CHMP4B; TPP-CCR, living cells, CHMP4B) of the same compound?
Its Hill slope is 0.21.

What about the “Hill slope (CHMP4B)” value (CHMP4B; [1]) of the same compound?
Its value is 0.21.

What about the EC50 (CHMP4B; living HL-60 cells, […] °C, TMT-MS, read-out: pEC50 (CHMP4B) (converted)) of the same compound?
Its EC50 is 41.7 nM.

What about the Hill slope (UNC119B; TPP-CCR, living cells, UNC119B) of the same compound?
The Hill slope was 0.67.

What about the “Hill slope (UNC119B)” value (UNC119B; [1]) of the same compound?
Its value is 0.67.

What about the EC50 (UNC119B; living HL-60 cells, […] °C, TMT-MS, read-out: pEC50 (UNC119B) (converted)) of the same compound?
Its EC50 is 1050 nM.

And the Hill slope (LRRC59; TPP-CCR, living cells, LRRC59)?
The Hill slope was 0.59.

And the “Hill slope (LRRC59)” value (LRRC59; [1])?
Its value is 0.59.

What about the EC50 (LRRC59; living HL-60 cells, […] °C, TMT-MS, read-out: pEC50 (LRRC59) (converted)) of the same compound?
Its EC50 is 1480 nM.
